Reference: patent publication US20250388605A1, “HETEROBIFUNCTIONAL COMPOUNDS AND METHODS OF TREATING DISEASE” (Halda Therapeutics OpCo, Inc., priority 2022, published 2025)

Key:
[1] = tested on: VCaP cells; test: Cellular growth inhibition assay for VCaP cells, CellTiter-Glo; type: cell-based, human; conditions: 72 hours
Method in brief: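 GI50 values come from four-parameter curve fits of luminescence data normalized to a zero baseline. Compound, in medium with 0.5% DMSO, was added one day after plating and left for 72 h before CellTiter-Glo 2.0 addition.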

[2] = tested on: T47D cells; test: Cellular Growth Inhibition Assay for T47D Cells (CellTiter-Glo); type: cell-based, human; conditions: 72 hours
Procedure: Exemplary compounds were tested for ability to inhibit the proliferation of T47D cells. T47D cells are a commercially available human breast cancer cell line.
T47D cells were purchased from American Type Cell Culture (ATCC Cat #HTB-133) and then seeded on poly-D-lysine coated, black clear-bottom 384-well plates at 3000/well in 25 μL Dulbecco's Modified Eagle Medium (DMEM) supplemented with 10% w/w Fetal bovine serum (FBS), 0.2 units/mL recombinant human insulin (Gibco Cat #12585014), and 1% w/w Pen-Strep. Pen-Strep is a commercially available mixture of penicillin G and streptomycin, which is used in mammalian cell culture media to prevent bacterial contamination. Dulbecco's Modified Eagle Medium (DMEM) supplemented with 10% w/w fetal bovine serum (FBS), 0.2 units/mL recombinant human insulin, and 1% w/w Pen-Strep is herein referred to as Treatment Medium. Following seeding of cells in the plates, the plates were spun at 300×g for 30 seconds, then equilibrated to room temperature for 30 minutes, and then deposited in a humidified tissue culture incubator maintained at 37° C. with 5% CO2.
At 24 hours after seeding of the cells, dilutions of test compound were prepared in DMSO and dissolved in Treatment Medium, to achieve a final DMSO concentration of 0.5% w/w, thereby providing the Test Compound Solution. A 25 μL aliquot of the Test Compound Solution was added to cells in the well plates. An equal volume of a solution containing DMSO and Treatment Medium was used as a negative control. Following treatment of cells with Test Compound Solution or said equal volume of a solution containing DMSO and Treatment Medium, the plates were spun at 300×g for 30 seconds, and then left in an incubator for 72 hours.
At the end of the treatment duration, cell viability was quantified with CellTiter-Glo 2.0 reagent (Promega Cat #G9243). For this purpose, plates were equilibrated to room temperature for 30 minutes, and then 25 μL of CellTiter-Glo 2.0 reagent was added to cells in the plate wells. Plates were then agitated on a shaker for two minutes at 500 rpm and subsequently incubated at room temperature for 10 minutes. Following incubation, the plates were spun at 3000×g for 30 seconds, then sealed with an optical adhesive cover, and luminescence readings were measured with an EnVision Plate Reader (Perkin Elmer).
Data was normalized using zero luminescence for baseline. A four-parameter non-linear regression curve fit was applied to dose-response data in GraphPad Prism data analysis software to determine the half-maximal growth inhibitory concentration (GI50) for each test compound.

[3] = tested on: T-Rex 293 cell line SC3 cells having increased expression of androgen receptor protein due to exposure to doxycycline; test: Cellular growth inhibition, T-Rex 293 SC3 cells with doxycycline (increased androgen receptor expression), CellTiter-Glo; type: cell-based; conditions: T-Rex 293 SC3 cells with 10 ng/mL doxycycline (increased androgen receptor expression), 72 hours, CellTiter-Glo 2.0
Method in brief: (§1)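 Growth inhibition is measured in an inducible AR-expressing T-Rex 293 clone, SC3, cultured with or without 10 ng/mL doxycycline in hormone-depleted medium. Test compounds are applied for 72 hours. GI50 values derive from CellTiter-Glo 2.0 signal fitted by four-parameter regression.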

[4] = tested on: T-Rex 293 cell line SC3 cells lacking increased expression of androgen receptor protein; test: Cellular growth inhibition, T-Rex 293 SC3 cells without doxycycline (no increased androgen receptor expression), CellTiter-Glo; type: cell-based; conditions: T-Rex 293 SC3 cells not exposed to doxycycline (no increased androgen receptor expression), 72 hours
Method in brief: as §1

| GI50 [1] | GI50 [2] | GI50 ([2]; Homo sapiens) | SMILES | other results |
| --- | --- | --- | --- | --- |
| < 500 nM | < 500 nM | – | Cn1cc(-c2cc(C(C)(C)O)ccc2Oc2ccc(CC3CC(C4CCCN(c5ncc(C(=O)N[C@H]6C(C)(C)[C@H](Oc7ccc(C#N)c(Cl)c7)C6(C)C)cn5)C4)C3)cc2)c2cc[nH]c2c1=O (single isomer, unassigned) [Compound I-347] | GI50 [3]: > 3000 nM; GI50 [4]: > 3000 nM |
| < 500 nM | < 500 nM | – | Cn1cc(-c2cc(C(C)(C)O)ccc2Oc2ccc(CC3CC(C4CCCN(c5ncc(C(=O)N[C@H]6C(C)(C)[C@H](Oc7ccc(C#N)c(Cl)c7)C6(C)C)cn5)C4)C3)cc2)c2cc[nH]c2c1=O (single isomer, unassigned) [Compound I-348] | GI50 [3]: < 500 nM; GI50 [4]: > 3000 nM |
| < 500 nM | < 500 nM | – | Cn1cc(-c2cc(C(C)(C)O)ccc2Oc2ccc(CC3CC(C4CCCN(c5ncc(C(=O)N[C@H]6C(C)(C)[C@H](Oc7ccc(C#N)c(Cl)c7)C6(C)C)cn5)C4)C3)cc2)c2cc[nH]c2c1=O (single isomer, unassigned) [Compound I-349] | GI50 [3]: > 3000 nM; GI50 [4]: > 3000 nM |
| – | – | < 500 nM | CCS(=O)(=O)Nc1ccc(Oc2cccc(CC3CCN(c4ncc(C(=O)N[C@H]5C(C)(C)[C@H](Oc6ccc(C#N)c(Cl)c6)C5(C)C)cn4)CC3)c2)c(-c2cn(C)c(=O)c3[nH]ccc23)c1 [Compound I-23] | GI50 ([1]; Homo sapiens): < 500 nM; GI50 [3]: < 500 nM; GI50 [4]: < 500 nM |
| < 500 nM | < 500 nM | – | Cn1cc(-c2cc(C(C)(C)O)ccc2Oc2ccc(F)c(CCCN3CC4(C3)CN(c3ncc(C(=O)N[C@H]5C(C)(C)[C@H](Oc6ccc(C#N)c(Cl)c6)C5(C)C)cn3)C4)c2F)c2cc[nH]c2c1=O [Compound I-247] | – |
| 500 to 1500 nM | < 500 nM | – | CCS(=O)(=O)c1ccc(Oc2cccc(CCCC3CCN(c4ncc(C(=O)N[C@H]5C(C)(C)[C@H](Oc6ccc(C#N)c(Cl)c6)C5(C)C)cn4)CC3)c2)c(-c2cn(C)c(=O)c3[nH]ccc23)c1 [Compound I-248] | – |
| < 500 nM | 500 to 1500 nM | – | Cn1cc(-c2cc(C(C)(C)O)ccc2OC(CCCCN2CCN(c3ncc(C(=O)N[C@H]4C(C)(C)[C@H](Oc5ccc(C#N)c(Cl)c5)C4(C)C)cn3)CC2)C2CC2)c2cc[nH]c2c1=O (some centres unmarked) [Compound I-252] | – |
| – | – | 500 to 1500 nM | Cn1cc(-c2cc(C(C)(C)O)ccc2OC2CC3CC2CC3OC2CCN(c3ncc(C(=O)N[C@H]4C(C)(C)[C@H](Oc5ccc(C#N)c(Cl)c5)C4(C)C)cn3)CC2)c2cc[nH]c2c1=O (some centres unmarked) [Compound I-253, N-[3-(3-chloro-4-cyano-phenoxy)-2,2,4,4-tetramethyl-cyclobutyl]-2-[4-[5-[4-(1-hydroxy-1-methyl-ethyl)-2-(6-methyl-7-oxo-1H-pyrrolo[2,3-c]pyridin-4-yl)phenoxy]norbornan-2-yl]oxy-1-piperidyl]pyrimidine-5-carboxamide] | GI50 ([1]; Homo sapiens): < 500 nM |
| – | – | > 3000 nM | Cn1cc(-c2cc(C(C)(C)O)ccc2OC(C)(C)CN2CC(OC3CCN(c4ncc(C(=O)N[C@H]5C(C)(C)[C@H](Oc6ccc(C#N)c(Cl)c6)C5(C)C)cn4)CC3)C2)c2cc[nH]c2c1=O [Compound I-254, N-[3-(3-chloro-4-cyano-phenoxy)-2,2,4,4-tetramethyl-cyclobutyl]-2-[4-[1-[2-[4-(1-hydroxy-1-methyl-ethyl)-2-(6-methyl-7-oxo-1H-pyrrolo[2,3-c]pyridin-4-yl)phenoxy]-2-methyl-propyl]azetidin-3-yl]oxy-1-piperidyl]pyrimidine-5-carboxamide] | GI50 ([1]; Homo sapiens): < 500 nM |
| < 500 nM | < 500 nM | – | Cn1cc(-c2cc(C(C)(C)O)ccc2Oc2ccc(C3(NCC4CCN(c5ncc(C(=O)N[C@H]6C(C)(C)[C@H](Oc7ccc(C#N)c(Cl)c7)C6(C)C)cn5)CC4)COC3)cc2)c2cc[nH]c2c1=O [Compound I-256] | – |
| – | < 500 nM | – | COc1cc(O[C@H]2C(C)(C)[C@H](NC(=O)c3cnc(N4CCC(C5CN(c6ccc(Oc7ccc(C(C)(C)O)cc7-c7cn(C)c(=O)c8[nH]ccc78)cc6)C5)CC4)nc3)C2(C)C)ccc1C#N [Compound I-385] | – |
| – | < 500 nM | – | Cn1cc(-c2ccccc2Oc2ccc(N3CC(C4CCN(c5ccc(C(=O)N[C@H]6C(C)(C)[C@H](Oc7ccc(C#N)c(Cl)c7)C6(C)C)nc5)CC4)C3)cc2)c2cc[nH]c2c1=O [Compound I-386] | – |
| – | – | > 3000 nM | Cn1cc(-c2cc(C(C)(C)O)ccc2Oc2ccccc2N2CC(CC3CCN(c4ncc(C(=O)NC5C(C)(C)C(Oc6ccc(C#N)c(Cl)c6)C5(C)C)cn4)CC3)C2)c2cc[nH]c2c1=O (centres unmarked) [Compound I-387, N-[3-(3-chloro-4-cyano-phenoxy)-2,2,4,4-tetramethyl-cyclobutyl]-2-[4-[[1-[2-[4-(1-hydroxy-1-methyl-ethyl)-2-(6-methyl-7-oxo-1H-pyrrolo[2,3-c]pyridin-4-yl)phenoxy]phenyl]azetidin-3-yl]methyl]-1-piperidyl]pyrimidine-5-carboxamide] | – |
| – | < 500 nM | – | Cn1cc(-c2cc(C(C)(C)O)ccc2Oc2ccc(N3CC(C4CCN(c5ccc(C(=O)N[C@H]6C(C)(C)[C@H](Oc7ccc(C#N)c(Cl)c7)C6(C)C)nc5)CC4)C3)cc2)c2cc[nH]c2c1=O [Compound I-388] | – |
| – | < 500 nM | – | Cn1cc(-c2cc(C(C)(C)O)ccc2Oc2ccc(N3CC(C4CCN(c5ncc(C(=O)N[C@H]6C(C)(C)[C@H](Oc7ccc(C#N)c(C(F)(F)F)c7)C6(C)C)cn5)CC4)C3)cc2)c2cc[nH]c2c1=O [Compound I-389] | – |
| – | < 500 nM | – | Cn1cc(-c2cc(C(C)(C)O)ccc2Oc2ccc(N3CC(C4CCN(c5ncc(C(=O)N[C@H]6C(C)(C)[C@H](Oc7ccc(C#N)c(F)c7)C6(C)C)cn5)CC4)C3)cc2)c2cc[nH]c2c1=O [Compound I-390] | – |
| – | – | < 500 nM | Cc1cc(Oc2ccc(C(C)(C)O)cc2-c2cn(C)c(=O)c3[nH]ccc23)cc(C)c1N1CC(CC2CCN(c3cnc(C(=O)N[C@H]4C(C)(C)[C@H](Oc5ccc(C#N)c(Cl)c5)C4(C)C)cn3)CC2)C1 [Compound I-391, N-[3-(3-chloro-4-cyano-phenoxy)-2,2,4,4-tetramethyl-cyclobutyl]-5-[4-[[1-[4-[4-(1-hydroxy-1-methyl-ethyl)-2-(6-methyl-7-oxo-1H-pyrrolo[2,3-c]pyridin-4-yl)phenoxy]-2,6-dimethyl-phenyl]azetidin-3-yl]methyl]-1-piperidyl]pyrazine-2-carboxamide] | – |
| – | – | < 500 nM | COc1cc(N2CC(CC3CCN(c4cnc(C(=O)NC5C(C)(C)C(Oc6ccc(C#N)c(Cl)c6)C5(C)C)cn4)CC3)C2)ccc1Oc1ccc(C(C)(C)O)cc1-c1cn(C)c(=O)c2[nH]ccc12 (centres unmarked) [Compound I-392, N-[3-(3-chloro-4-cyano-phenoxy)-2,2,4,4-tetramethyl-cyclobutyl]-5-[4-[[1-[4-[4-(1-hydroxy-1-methyl-ethyl)-2-(6-methyl-7-oxo-1H-pyrrolo[2,3-c]pyridin-4-yl)phenoxy]-3-methoxy-phenyl]azetidin-3-yl]methyl]-1-piperidyl]pyrazine-2-carboxamide] | – |
| – | – | < 500 nM | Cn1cc(-c2cc(C(C)(C)O)ccc2Oc2ccc(N3CC(CC4CCN(c5cnc(C(=O)N[C@H]6C(C)(C)[C@H](Oc7ccc(C#N)c(Cl)c7)C6(C)C)cn5)CC4)C3)cc2Cl)c2cc[nH]c2c1=O [Compound I-393] | – |
| – | < 500 nM | – | COc1cc(Oc2ccc(C(C)(C)O)cc2-c2cn(C)c(=O)c3[nH]ccc23)ccc1N1CC(CC2CCN(c3cnc(C(=O)N[C@H]4C(C)(C)[C@H](Oc5ccc(C#N)c(Cl)c5)C4(C)C)cn3)CC2)C1 [Compound I-394] | – |
